Measured values: ChEMBL document CHEMBL2073857, “Increased sensitivity to vincristine of MDR cells by the leukotriene D4 receptor antagonist, ONO-1078” (Cancer Lett, 1998)

Molecular target: Multidrug resistance-associated protein 1 (MRP1) (Homo sapiens, UniProt P33527)
Experiment: TP_TRANSPORTER: inhibition of LTC4 uptake (LTC4: 0.00134 uM, ONO-1078: 100 uM) in membrane vesicles from CV60 cells
Format: functional, cell membranes, Membrane vesicle
Set-up: scale not given: the % may be the effect or the level left
Conditions: probe LTC4 (0.00134 uM), read-out: Activity

Multidrug resistance-associated protein 1 (MRP1), sequence (P33527 whole entry): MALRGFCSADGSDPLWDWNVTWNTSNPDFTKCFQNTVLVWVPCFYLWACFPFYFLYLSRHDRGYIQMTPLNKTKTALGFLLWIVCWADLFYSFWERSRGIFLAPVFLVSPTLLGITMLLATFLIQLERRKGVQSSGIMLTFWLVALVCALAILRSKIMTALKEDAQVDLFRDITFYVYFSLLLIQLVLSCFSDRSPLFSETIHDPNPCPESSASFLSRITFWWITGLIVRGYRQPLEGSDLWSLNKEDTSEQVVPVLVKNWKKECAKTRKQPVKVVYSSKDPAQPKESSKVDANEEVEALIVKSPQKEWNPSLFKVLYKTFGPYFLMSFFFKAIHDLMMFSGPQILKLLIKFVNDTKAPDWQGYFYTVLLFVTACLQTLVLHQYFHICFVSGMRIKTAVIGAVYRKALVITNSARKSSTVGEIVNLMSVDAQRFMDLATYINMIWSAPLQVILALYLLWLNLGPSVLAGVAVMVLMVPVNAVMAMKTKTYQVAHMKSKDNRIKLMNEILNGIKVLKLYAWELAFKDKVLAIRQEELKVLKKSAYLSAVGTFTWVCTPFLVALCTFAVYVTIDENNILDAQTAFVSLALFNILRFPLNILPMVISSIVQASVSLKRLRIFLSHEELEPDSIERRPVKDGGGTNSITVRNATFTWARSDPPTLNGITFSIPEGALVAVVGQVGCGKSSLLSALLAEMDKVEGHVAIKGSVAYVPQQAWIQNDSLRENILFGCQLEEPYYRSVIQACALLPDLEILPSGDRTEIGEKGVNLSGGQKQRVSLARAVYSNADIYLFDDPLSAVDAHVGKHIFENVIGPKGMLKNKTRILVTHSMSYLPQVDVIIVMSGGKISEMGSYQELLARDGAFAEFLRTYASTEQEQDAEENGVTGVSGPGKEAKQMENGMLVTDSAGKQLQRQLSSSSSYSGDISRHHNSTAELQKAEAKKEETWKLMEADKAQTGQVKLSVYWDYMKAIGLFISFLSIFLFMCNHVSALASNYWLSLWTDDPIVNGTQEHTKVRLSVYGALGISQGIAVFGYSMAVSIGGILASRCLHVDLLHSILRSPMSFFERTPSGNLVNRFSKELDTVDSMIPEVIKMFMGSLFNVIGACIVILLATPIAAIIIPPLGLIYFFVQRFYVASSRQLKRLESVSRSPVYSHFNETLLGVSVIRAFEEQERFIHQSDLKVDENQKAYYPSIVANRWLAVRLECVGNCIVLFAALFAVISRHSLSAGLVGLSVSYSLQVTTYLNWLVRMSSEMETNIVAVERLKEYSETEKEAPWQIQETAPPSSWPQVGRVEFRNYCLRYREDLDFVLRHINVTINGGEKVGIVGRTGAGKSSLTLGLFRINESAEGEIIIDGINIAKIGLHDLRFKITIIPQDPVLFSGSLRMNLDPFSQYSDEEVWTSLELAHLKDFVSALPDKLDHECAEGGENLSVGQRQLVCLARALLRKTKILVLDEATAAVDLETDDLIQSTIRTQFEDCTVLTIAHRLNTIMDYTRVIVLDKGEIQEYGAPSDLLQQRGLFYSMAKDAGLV

O=C(Nc1cccc2c(=O)cc(-c3nnn[nH]3)oc12)c1ccc(OCCCCc2ccccc2)cc1 [PRANLUKAST]
activity at 100 µM: 55%
